# Results published in publication PMC5056380, “Characterization of WY 14,643 and its Complex with Aldose Reductase” (Scientific Reports, 2016).
# Where two headings read alike, the source gives them in different places.
# What was measured:
# [1] = target: T1, human Aldose reductase (hAR) (Homo sapiens, UniProt P15121); assay: Fluorescence titration (quenching) of cofactor binding to hAR; settings: for Kd: 0.5 μM protein
# T1 construct: hexa-His (cleaved yes); made in house; host or cells: E. coli BL21
# Experimental: (§1) The fluorescence intensities of hAR decreased gradually when the concentrations of quenchers (i.e. inhibitor and cofactors) were increased. The observed fluorescence data were used for calculating the fluorescence quenching (Q% = (F^0 − F)/F^0) where F is the measured fluorescence and F^0 is the fluorescence in the absence of quenchers.
# (§2) Fluorescence titration was performed for the binding of NADPH to hAR at a protein concentration of 0.5 μM in 5 mM sodium phosphate buffer (pH 7.0) containing 100 μM DTT. The titration for NADP^+ binding to hAR was conducted at a protein concentration of 0.5 μM in 10 mM Tris-HCl buffer (pH 9.0) containing 100 μM DTT in 1.4 ml quartz cuvette by measuring fluorescence by SpectraMax M2 (Molecular Device, CA). The concentration of protein•NADP^+/NADPH complexes formed were measured by extensive quenching of protein fluorescence by varying the concentrations of NADP^+/NADPH at excitation and emission wavelengths of 295 and 365 nm, respectively following the procedure described by[43][44]. This method was extended for inhibitor (WY 14,643) binding to enzyme•NADPH complex at protein concentration of 0.5 μM in 5 mM sodium phosphate buffer (pH 7.0) containing 100 μM DTT by keeping saturated fixed 60 μM concentration of NADPH and by varying the concentrations of WY 14,643. The binding of inhibitor (WY 14,643) to enzyme•NADP^+ complex was measured at 0.5 μM protein concentration in 10 mM Tris-HCl buffer (pH 9.0) containing 100 μM DTT by keeping saturated fixed 60 μM concentration of NADP^+ and varying the WY 14,643. The concentrations of enzyme•NADP^+/NADPH•inhibitor complex formed were measured by quenching of fluorescence protein•NADP^+/NADPH complexes with excitation and emission wavelengths 295 and 365 nm, respectively.
# The methodology described by van de Weert 2010 was followed in the binding constant determination. The fractional saturation (α) of protein by cofactors (NADP^+/NADPH) and by inhibitor (WY 14,643) binding to protein can be expressed in the form of fluorescence as follows;
# The binding dissociation constants and stoichiometry for the binding of quenchers (cofactors and inhibitor) to protein were calculated by non-linear fitting to the experimental fluorescence data and results are shown in Table 1.
# [2] = target: T2, hAR•NADP^+ (Homo sapiens, UniProt P15121); assay: Fluorescence titration of inhibitor binding to the hAR•NADP^+ binary complex; settings: 60 μM NADP^+, 10 mM Tris-HCl pH 9.0
# T2 construct: hexa-His (cleaved yes); made in house; host or cells: E. coli BL21
# Experimental: as §1
# as §2, with “This method was extended for inhibitor (WY 14,643) binding to enzyme•NADPH complex at protein concentration of 0.5 μM in 5 mM sodium phosphate buffer (pH 7.0) containing 100 μM DTT by keeping saturated fixed 60 μM concentration of NADPH and by varying the concentrations of WY 14,643.” left out, “The concentrations of enzyme•NADP^+/NADPH•inhibitor complex formed were measured by quenching of fluorescence protein•NADP^+/NADPH complexes with excitation and emission wavelengths 295 and 365 nm, respectively.” left out
# [3] = target: T3, hAR•NADPH (Homo sapiens, UniProt P15121); assay: Fluorescence titration of inhibitor binding to the hAR•NADPH binary complex; settings: 60 μM NADPH, 5 mM sodium phosphate pH 7.0
# T3 construct: hexa-His (cleaved yes); made in house; host or cells: E. coli BL21
# Experimental: as §1
# as §2, with “This method was extended for inhibitor (WY 14,643) binding to enzyme•NADPH complex at protein concentration of 0.5 μM in 5 mM sodium phosphate buffer (pH 7.0) containing 100 μM DTT by keeping saturated fixed 60 μM concentration of NADPH and by varying the concentrations of WY 14,643.” left out, “The concentrations of enzyme•NADP^+/NADPH•inhibitor complex formed were measured by quenching of fluorescence protein•NADP^+/NADPH complexes with excitation and emission wavelengths 295 and 365 nm, respectively.” left out
# [4] = target: T1, human Aldose reductase (hAR); parameters: method as in PMID 17194029; settings: cited from earlier work
# [5] = test system: rat livers; parameters: method as in PMID 195342; settings: cited from earlier work
compound,measurement,setting,value
NC(=O)c1ccc[n+]([C@@H]2O[C@H](COP(=O)([O-])OP(=O)(O)OC[C@H]3O[C@@H](n4cnc5c(N)ncnc54)[C@H](OP(=O)(O)O)[C@@H]3O)[C@@H](O)[C@H]2O)c1 [NADP^+],Kd,"[1]; NADP^+ binding to apo hAR, 10 mM Tris-HCl pH 9.0, 100 μM DTT, read-out: Kd(E-NADP^+), equilibrium dissociation constant",210 ± 10 nM
same,"stoichiometry coefficient (n), E-NADP^+","[1]; NADP^+ binding to apo hAR, 10 mM Tris-HCl pH 9.0",1.05 ± 0.03
same,fold higher affinity of NADP^+ than NADPH for hAR,"[1]; fluorescence quenching data, oxidized vs reduced cofactor",2 fold
"Cc1cccc(Nc2cc(Cl)nc(SCC(=O)O)n2)c1C [WY 14,643, [4-Chloro-6-(2,3-xylidino)-2-pyrimidinylthio]acetic Acid]",Kd,[2]; 0.5 μM protein,104 nM
same,"stoichiometry coefficient (n), binding with hAR•NADP^+ complex",[2],1.37 ± 0.05
same,Kd,[3]; 0.5 μM protein,110 nM
same,"stoichiometry coefficient (n), binding with hAR•NADPH complex",[3],1.25 ± 0.06
same,Kii (intercept inhibition constant),[4]; forward reaction (reduction of DL-glyceraldehyde),1.8 µM
same,Ki,"[4]; forward reaction (reduction of DL-glyceraldehyde), read-out: Kis (the slope inhibition constant)",1800 nM
same,mode of inhibition,[4]; oxidation of benzyl alcohol,pure non-competitive
same,pattern of inhibition,[4]; with respect to the reduction of DL-glyceraldehyde,classical non-competitive
same,increased capacity in oxidization of palmitoyl-coenzyme A,[5],18 fold
NC(=O)C1=CN([C@@H]2O[C@H](COP(=O)(O)OP(=O)(O)OC[C@H]3O[C@@H](n4cnc5c(N)ncnc54)[C@H](OP(=O)(O)O)[C@@H]3O)[C@@H](O)[C@H]2O)C=CC1 [NADPH],Kd,"[1]; NADPH binding to apo hAR, 5 mM sodium phosphate pH 7.0, 100 μM DTT, read-out: Kd(E-NADPH), equilibrium dissociation constant",480 ± 40 nM
same,"stoichiometry coefficient (n), E-NADPH","[1]; NADPH binding to apo hAR, 5 mM sodium phosphate pH 7.0",1.25 ± 0.1
